{"source": "patent US9757378B2", "about": "“Methods to modulate acute myeloid leukemia stem/progenitor cell expansion and/or differentiation” (UNIVERSITE DE MONTREAL, priority 2013, dated 2017)", "key": {"human AHR": {"biological_target": "T1, human AHR (Homo sapiens, UniProt P35869)", "T1 sequence (P35869 11-848)": "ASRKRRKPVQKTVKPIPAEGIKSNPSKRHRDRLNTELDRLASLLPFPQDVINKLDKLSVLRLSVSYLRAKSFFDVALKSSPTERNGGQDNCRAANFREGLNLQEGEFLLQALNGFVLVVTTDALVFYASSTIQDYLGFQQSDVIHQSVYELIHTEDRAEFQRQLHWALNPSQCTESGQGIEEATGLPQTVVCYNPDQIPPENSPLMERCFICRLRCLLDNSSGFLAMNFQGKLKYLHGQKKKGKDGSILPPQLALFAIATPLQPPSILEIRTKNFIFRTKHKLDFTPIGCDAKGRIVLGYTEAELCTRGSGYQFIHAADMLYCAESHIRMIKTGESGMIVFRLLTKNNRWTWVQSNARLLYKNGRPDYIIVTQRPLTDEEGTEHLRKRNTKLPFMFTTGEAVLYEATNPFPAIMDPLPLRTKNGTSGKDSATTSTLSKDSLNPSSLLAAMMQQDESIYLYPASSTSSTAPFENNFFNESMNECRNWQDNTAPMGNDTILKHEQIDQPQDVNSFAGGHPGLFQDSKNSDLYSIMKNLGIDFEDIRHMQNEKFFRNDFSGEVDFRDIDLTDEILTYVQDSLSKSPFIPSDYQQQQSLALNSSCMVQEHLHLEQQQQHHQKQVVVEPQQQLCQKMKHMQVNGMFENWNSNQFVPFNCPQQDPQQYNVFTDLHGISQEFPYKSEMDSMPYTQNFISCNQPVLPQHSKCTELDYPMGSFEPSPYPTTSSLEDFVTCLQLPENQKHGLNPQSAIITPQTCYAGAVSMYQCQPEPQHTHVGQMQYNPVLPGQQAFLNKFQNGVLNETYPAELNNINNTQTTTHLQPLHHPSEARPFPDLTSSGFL", "settings": "Mezrich et al. 2012; cited from earlier work"}, "primary human AML cells [1]": {"tested_on": "primary human AML cells", "experiment": "Secondary screen: dose response, five serial dilutions (CD34/CD15 flow cytometry)", "assay_type": "cell-based", "parameters": "key to 2ndary screen criteria fulfilled: 0 = no; 1 = yes", "protocol": "In the primary screen cells were plated in transparent 384-wellplates (Greiner, 781182) at a density of 5,000 cells in 50 μl final volume per well. Compounds were tested at 2 μM (commercial libraries) or 1 μg/ml (Medicinal Chemistry Facility, IRIC). […] For validation experiments AML cells were grown in 384-well plates with 3-8 replicates per condition.\nFlow cytometry was performed on an LSR™ II cytometer equipped with an HTS-device (BD Bioscience, Primary and Secondary screens and in vitro validation experiments) or on a BD Canto™ II cytometer (BD Bioscience, Xenotransplantation and CellTrace Violet™ experiments). Cells were stained for 30 minutes at 4° C. protected from light if not otherwise indicated (CellTrace Violet™ staining). The following flow cytometry-antibodies were used: CD45 Pacific Blue (BioLegend 304029), CD33 PE (BD Bioscience 555450), CD34 APC (BD Bioscience 555824), CD3 FITC (BD Bioscience 555332), CD19 PE-Cy7 (BD Bioscience 557835), CD15 PE (BD Bioscience 555401), and anti-mouse CD45.1 APC-efluor 730 (eBioscience 47-0453-82). CD34 intensities in flow cytometry plots were set at high levels on day 0 to allow tracing of non-predictable decreases of intensities during 7 days in culture."}, "[2]": {"tested_on": "primary human AML specimens", "experiment": "Validation: 7-day serum-free culture of diverse AML specimens (CD34+CD15− cells)", "assay_type": "cell-based", "settings": "for preventing AML cell differentiation in vitro, compound alone: 17 AML specimens, UM729 1 μM", "method": "The following flow cytometry-antibodies were used: […] Statistical analyses of all in vitro experiments were done using Graphpad Prism v 6.01. […] Normalized CD34^+CD15^- percentages (td7/t0) were analyzed by Wilcoxon matched pairs signed rank test. Bars and error bars represent means and standard deviations (SD), or standard errors of the mean (SEM), as specified. Extreme limiting dilution analysis software (Hu, […]: extreme limiting dilution analysis for comparing depleted and enriched populations in stem cell and other assays. Journal of immunological methods 347, 70-78 (2009); http://bioinf.wehi.edu.au/software/elda/) was used to estimate LSC frequencies with 95% confidence intervals. In cases where all mice were positive or negative, one-sided confidence intervals were calculated. Differences in LSC frequencies between culture conditions were analyzed by Chi-square test."}, "AML cells (04H112)": {"tested_on": "AML cells (04H112)", "experiment": "Cell proliferation assay (CellTrace Violet)", "assay_type": "cell-based, human", "settings": "4-day culture; SR1 500 nM, UM729 1 μM", "method": "CellTrace™ Violet (Invitrogen/Life Technologies C34557) was added at a final concentration of 3 μM to cell suspensions (10^7 cells/ml) containing SR1 (500 nM), UM729 (1 μM), both compounds, or vehicle DMSO (0.1%). CellTrace™ Violet labeled cells were stained with surface antibodies against human CD3, CD19, CD34, and CD33 on day 0, day 2, and day 4 prior to analysis on a BD Canto™ II flow cytometer. Data were analyzed using FlowJo™ version 7.6.5."}, "[3]": {"tested_on": "leukemia stem cells (LSC) of primary human AML samples", "experiment": "Xenotransplantation of 4-day cultured AML cells into NSG mice (engraftment, LSC frequency)", "assay_type": "in vivo", "source_text": "NOD.Cg-Prkdc^scid II2rg^tm1Wjl/SzJ (NSG) mice were purchased from Jackson Laboratory® (Bar Harbor, Me.) and bred in a pathogen-free animal facility. All AML samples were transplanted via the tail vein into 8-12 week old sublethally irradiated (250 cGy, ^137Cs-gamma source) NSG mice. […] On day 4, equivalents of the three highest to cell doses from each of the 3-4 flasks per condition were transplanted. The technician injecting fresh and cultured cells in NSG mice was not informed about the experimental conditions. […] On average 150,000 gated events were acquired. Mice were considered positive if human cells represented >1% of the bone marrow cell population. Mice were excluded only in case of obvious non-leukemia related death (e.g. first two weeks after irradiation). To discriminate between engraftment of leukemic and normal cells present in unsorted patient samples only recipients with proportions of CD45^+CD33^+ or CD45^+CD34^+ cells higher than proportions of CD19^+CD33^- or CD3^+ were considered to harbor cells of leukemic origin. Statistical analyses of all in vitro experiments were done using Graphpad Prism v 6.01. […] Normalized CD34^+CD15^- percentages (td7/t0) were analyzed by Wilcoxon matched pairs signed rank test. Bars and error bars represent means and standard deviations (SD), or standard errors of the mean (SEM), as specified. Extreme limiting dilution analysis software (Hu, […]: extreme limiting dilution analysis for comparing depleted and enriched populations in stem cell and other assays. Journal of immunological methods 347, 70-78 (2009); http://bioinf.wehi.edu.au/software/elda/) was used to estimate LSC frequencies with 95% confidence intervals. In cases where all mice were positive or negative, one-sided confidence intervals were calculated. Differences in LSC frequencies between culture conditions were analyzed by Chi-square test."}, "primary human AML cells [4]": {"tested_on": "primary human AML cells", "experiment": "Primary screen: differentiation of primary human AML cells in vitro (CD34/CD15, HTS flow cytometry)", "protocol": "AML cells were thawed in 37° C. water bath and 1:10 diluted in prewarmed Iscove's modified Dulbecco's medium (IMDM) containing 20% FBS and DNase 100 μg/ml. […] When compounds were added to the culture medium, final DMSO concentrations were 0.1% in all in vitro experiments and 0.01% when cultured cells were transplanted into NSG-mice.\nCompounds were tested at 2 μM (commercial libraries) or 1 μg/ml (Medicinal Chemistry Facility, IRIC). […] For validation experiments AML cells were grown in 384-well plates with 3-8 replicates per condition.\nFlow cytometry was performed on an LSR™ II cytometer equipped with an HTS-device (BD Bioscience, Primary and Secondary screens and in vitro validation experiments) or on a BD Canto™ II cytometer (BD Bioscience, Xenotransplantation and CellTrace Violet™ experiments). Cells were stained for 30 minutes at 4° C. protected from light if not otherwise indicated (CellTrace Violet™ staining). […] CD34 intensities in flow cytometry plots were set at high levels on day 0 to allow tracing of non-predictable decreases of intensities during 7 days in culture."}, "AML cells": {"tested_on": "AML cells", "experiment": "Morphology analysis (cytospins, Wright stain)", "assay_type": "cell-based, human", "settings": "4-day culture; SR1 500 nM, UM729 1 μM", "method": "2-4×10^5 fresh and cultured cells were centrifuged onto cytospin slides, stained with Wright stain solution for 10 minutes and washed with PBS and water prior to analysis. Pictures of cytospins were taken with a Canon® EOS 5D camera connected to a Zeiss® Axio Imager microscope (40× objective)."}, "[5]": {"tested_on": "AhR target genes CYP1A1, CYP1B1 and AHRR", "experiment": "AhR target gene expression by q-RT-PCR in AML cells", "assay_type": "cell-based, human", "source_text": "RNA was isolated from primary AML samples using Trizol® reagent according to the manufacturer's instructions (Invitrogen/Life Technologies) and reverse transcribed into cDNA using MMLV reverse transcriptase and random primers. 2× Fast Master Mix® containing primers described below and probes from the Universal Probe Library® (Roche Diagnostics) were used for q-RT-PCR reactions which were amplified in 2-3 technical replicates on an ABI 7900HT Fast Real-Time® PCR System (Applied Biosystems/Life Technologies). Analysis was done with SDS 2.2.2 software (Applied Biosystems/Life Technologies) using the comparative delta CT method with GAPDH as reference gene. The following primers and probes were used: GAPDH: 5′-[…]-3′ (forward, SEQ ID NO:7), 5′-[…]-3′ (reverse, SEQ ID NO:8), probe 60, CYP1A1: 5′-[…]-3′ (forward, SEQ ID NO:9), 5′-[…]-3′ (reverse, SEQ ID NO:10), probe 59, CYP1B1: 5′-[…]-3′ (forward, SEQ ID NO:11), 5′-[…]-3′ (reverse, SEQ ID NO:12), probe 20, AHRR: 5′-[…]-3′ (forward, SEQ ID NO:13), 5′-[…]-3′ (reverse, SEQ ID NO:14), probe 72, AHR: 5′-[…]-3′ (forward, SEQ ID NO:15), 5′-[…]-3′ (reverse, SEQ ID NO:16), probe 33."}, "AML 05H163 cells": {"tested_on": "AML 05H163 cells", "experiment": "5-day culture of AML 05H163 with AhR suppressors plus UM729", "assay_type": "cell-based, human", "settings": "05H163, 5 days", "protocol": "AML cells were thawed in 37° C. water bath and 1:10 diluted in prewarmed Iscove's modified Dulbecco's medium (IMDM) containing 20% FBS and DNase 100 μg/ml. Cells were cultured in IMDM supplemented with 15% BIT (bovine serum albumin, insulin, transferrin, Stem Cell Technologies #09500), SCF 100 ng/ml (Shenandoah #100-04), FLT3L 50 ng/ml (Shenandoah #100-21), II-3 20 ng/ml (Shenandoah #100-80), G-CSF 20 ng/ml (Shenandoah #100-72), β-mercaptoethanol (10^−4M), gentamicin (50 μg/ml) and ciprofloxacin (10 μg/ml). […] When compounds were added to the culture medium, final DMSO concentrations were 0.1% in all in vitro experiments and 0.01% when cultured cells were transplanted into NSG-mice.\nFlow cytometry was performed on an LSR™ II cytometer equipped with an HTS-device (BD Bioscience, Primary and Secondary screens and in vitro validation experiments) or on a BD Canto™ II cytometer (BD Bioscience, Xenotransplantation and CellTrace Violet™ experiments). Cells were stained for 30 minutes at 4° C. protected from light if not otherwise indicated (CellTrace Violet™ staining). The following flow cytometry-antibodies were used: CD45 Pacific Blue (BioLegend 304029), CD33 PE (BD Bioscience 555450), CD34 APC (BD Bioscience 555824), CD3 FITC (BD Bioscience 555332), CD19 PE-Cy7 (BD Bioscience 557835), CD15 PE (BD Bioscience 555401), and anti-mouse CD45.1 APC-efluor 730 (eBioscience 47-0453-82). […]"}, "[6]": {"settings": "at optimal concentration, compared to DMSO"}}, "note": "“Also recorded” adds a separate entry of the source.", "data": [{"smiles": "Cc1cc(C)c(/C=C2\\C(=O)Nc3ccccc32)[nH]1", "note": "[SU5416, 3-(3,5-dimethyl-1H-pyrrol-2-ylmethylene)-1,3-dihydro-indole-2-one]", "values": [{"measurement": "activation of the human AHR", "setting": "human AHR", "value": "potency approaching TCDD"}]}, {"smiles": "COC(=O)c1ccc2c(c1)[nH]c1ncnc(NCCCN3CCCCC3)c12", "note": "[UM0125729, methyl 4-((3-(piperidin-1-yl)propyl)amino)-9H-pyrimido[4,5-b]indole-7-carboxylate]", "values": [{"measurement": "% increase CD34+CD15− (%) 2ndary screen", "setting": "primary human AML cells [1]; [6]", "value": 205.07, "unit": "%"}, {"measurement": "% increase CD34+CD15− (cell counts) 2ndary screen", "setting": "primary human AML cells [1]; [6]", "value": 206.53, "unit": "%"}, {"measurement": "2ndary screen criteria fulfilled", "setting": "primary human AML cells [1]; ≧50% increase CD34+CD15− (%) and cell counts and ≧50% gated cells in at least one dose", "value": 1}, {"measurement": "effect of adding UM729 to AhR suppressor-supplemented cultures", "setting": "[2]; 7-day culture, CD34+CD15− percentage", "value": "enhanced the effect of SR1 in all specimens"}, {"measurement": "preventing AML cell differentiation in vitro, compound alone", "setting": "[2]; 7-day culture", "value": "most samples responded"}, {"measurement": "CD34+CD38− and CD34+CD38+ compartments, SR1 and UM729 compared to DMSO", "setting": "[2]; 7 days in culture", "value": "benefitted"}, {"measurement": "distribution of cell generations / number of early cell divisions", "setting": "AML cells (04H112)", "value": "did not affect"}, {"measurement": "effect of adding UM729 to SR1- (or C05-) supplemented cultures on engraftment", "setting": "[3]; 4-day culture, NSG mice, most samples", "value": "increased engraftment levels, but not LSC frequency"}, {"measurement": "percent gated cells (viability)", "setting": "primary human AML cells [4]; 2 μM (commercial libraries) or 1 μg/ml (IRIC)", "value": 78.40, "unit": "%"}, {"measurement": "% increase CD34+ (cell counts)", "setting": "primary human AML cells [4]; compared to DMSO", "value": 26.44, "unit": "%"}, {"measurement": "% increase CD34+CD15− (cell counts)", "setting": "primary human AML cells [4]; compared to DMSO", "value": 63.00, "unit": "%"}, {"measurement": "% increase CD34+CD15− (%)", "setting": "primary human AML cells [4]; compared to DMSO ((compound − DMSO)/DMSO*100)", "value": 47.24, "unit": "%"}, {"measurement": "typical morphologic signs of differentiation on cytospins", "setting": "AML cells", "value": "rarely seen"}, {"measurement": "effect on AhR target genes (CYP1A1, CYP1B1, AHRR) expression", "setting": "[5]; 24 h incubation, compared to DMSO, GAPDH control", "value": "no effect"}, {"measurement": "absolute numbers of CD34+CD15− cells, UM729 added compared to AhR suppressors alone", "setting": "AML 05H163 cells", "value": "higher"}]}, {"smiles": "CC(C)n1cnc2c(NCCc3ccc(O)cc3)nc(-c3csc4ccccc34)nc21", "note": "[SR1, StemRegenin 1]", "values": [{"measurement": "samples with net expansion of CD34+CD15− cells", "setting": "[2]; 7-day culture, compared to input", "value": "15/16"}, {"measurement": "increase in CD34+CD15− cell numbers", "setting": "[2]; 7-day culture, maximum (AML 08H112)", "value": "up to 42 fold"}, {"measurement": "impact on CD34+CD15− cell numbers", "setting": "[2]; 7-day culture, vs DMSO, P<0.0001 paired t-test", "value": "significant impact"}, {"measurement": "median CD34+CD15− percentage relative to uncultured cells", "setting": "[2]; 7-day culture, SR1 0.75-1 μM, C05 2 μM, DMSO 19% / 22%", "value": 72, "unit": "%"}, {"measurement": "preventing AML cell differentiation in vitro, compound alone", "setting": "[2]; 7-day culture", "value": "superior to UM729"}, {"measurement": "distribution of cell generations / number of early cell divisions", "setting": "AML cells (04H112)", "value": "no difference"}, {"measurement": "total viable cells per flask (median±SD) following 4-day culture", "setting": "[3]; cultures before transplantation, DMSO 6.2±3×10^6", "value": "4.8±2×10^6"}, {"measurement": "engraftment (average)", "setting": "[3]; sample 05H163, progeny of 2×10^6 input cells, SR1-supplemented culture", "value": 50, "unit": "%"}, {"measurement": "supporting LSC functional activity, SR1 alone versus UM729 alone", "setting": "[3]; six samples, engraftment in NSG mice", "value": "superior to UM729 in supporting LSC functional activity in four of six samples; also recorded: equally efficacious in two samples"}, {"measurement": "engraftment levels compared to control DMSO", "setting": "[3]; six samples, 4-day culture with SR1 0.5-1 μM, NSG mice", "value": "higher engraftment levels"}, {"measurement": "upregulation of AhR target genes AHRR and CYP1A1 upon 24 h in vitro culture", "setting": "[5]; SR1 500 nM, TCDD 0.1, 1, 10 nM, n=13 samples", "value": "effectively antagonized"}]}]}
